Data as given in patent publication US11524966B1 (Valo Early Discovery, Inc., priority 2017, dated 2022).

Target: T1, USP25 (USP25-His6, Boston Biochem E-546) (Homo sapiens, UniProt Q9UHP3)
T1 construct: His6; purchased Boston Biochem E-546
T1 sequence (Q9UHP3 1-1055): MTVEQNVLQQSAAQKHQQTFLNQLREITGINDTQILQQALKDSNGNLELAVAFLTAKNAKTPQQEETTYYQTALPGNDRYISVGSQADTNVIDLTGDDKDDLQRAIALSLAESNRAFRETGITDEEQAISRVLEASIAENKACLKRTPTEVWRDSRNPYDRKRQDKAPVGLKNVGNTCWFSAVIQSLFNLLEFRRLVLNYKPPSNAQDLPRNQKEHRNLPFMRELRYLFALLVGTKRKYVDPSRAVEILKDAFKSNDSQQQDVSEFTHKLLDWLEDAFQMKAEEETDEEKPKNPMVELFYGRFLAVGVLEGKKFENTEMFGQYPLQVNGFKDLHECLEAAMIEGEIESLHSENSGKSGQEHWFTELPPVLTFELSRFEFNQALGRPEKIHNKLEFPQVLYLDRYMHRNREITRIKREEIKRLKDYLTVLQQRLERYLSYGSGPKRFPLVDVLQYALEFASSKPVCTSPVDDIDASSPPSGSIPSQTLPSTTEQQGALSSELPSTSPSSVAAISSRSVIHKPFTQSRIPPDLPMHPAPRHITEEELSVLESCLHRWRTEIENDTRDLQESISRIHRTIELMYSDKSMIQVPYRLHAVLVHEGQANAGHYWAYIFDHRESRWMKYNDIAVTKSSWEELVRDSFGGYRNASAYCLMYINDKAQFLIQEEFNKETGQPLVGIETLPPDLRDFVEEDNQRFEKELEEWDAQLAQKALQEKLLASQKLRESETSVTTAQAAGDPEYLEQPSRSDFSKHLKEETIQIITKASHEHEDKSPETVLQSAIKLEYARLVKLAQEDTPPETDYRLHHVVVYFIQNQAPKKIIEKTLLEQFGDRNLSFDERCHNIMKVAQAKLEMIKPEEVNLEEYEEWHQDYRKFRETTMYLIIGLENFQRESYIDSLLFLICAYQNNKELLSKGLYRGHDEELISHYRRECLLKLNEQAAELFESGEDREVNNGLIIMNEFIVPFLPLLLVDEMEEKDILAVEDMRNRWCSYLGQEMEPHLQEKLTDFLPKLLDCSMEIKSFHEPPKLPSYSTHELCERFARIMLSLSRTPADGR
Experiment: Ubiquitin-Rhodamine 110 Assay for USP25 Activity, Example A-2
Type: biochemical
Conditions: Ubiquitin-Rhodamine 110 assay, Example A-2; read-out: USP25 A-2 IC50 range
Outline: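 Fluorescence (ex 485, em 535 nm) of cleaved ubiquitin-rhodamine 110 (25 nM, below Km) gave IC50 via 4-parameter logistic fit. Reaction: 45 min, room temperature, citric acid stop, after 30 min compound preincubation with 75 pM USP25-His6 in 20 mM Tris pH 8.0, 3 mM BME, 0.03% BGG, 0.01% Triton X-100; top dose 25 μM.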

SMILES	IC50
N#Cc1c(N2CC3CCC(C2)N3)cc(F)c2c1CC[C@@H](NC(=O)c1cnc3c(c1)[C@H]1C[C@H]1CN3)C2 [Example 198, (6aR,7aS)-N-[(2R)-5-cyano-6-{3,8-diazabicyclo[3.2.1]octan-3-yl}-8-fluoro-1,2,3,4-tetrahydronaphthalen-2-yl]-5H,6H,6aH,7H,7aH-cyclopropa[c]1,8-naphthyridine-2-carboxamide]	200 to 2000 nM
CO[C@H]1CN(c2cc3c(c(F)c2C#N)C[C@@H](NC(=O)c2sc4nc(C)cnc4c2N)CO3)C[C@@H]1N [Example 199, 7-amino-N-[(3R)-7-[(3S,4S)-3-amino-4-methoxypyrrolidin-1-yl]-6-cyano-5-fluoro-3,4-dihydro-2H-1-benzopyran-3-yl]-3-methylthieno[2,3-b]pyrazine-6-carboxamide]	50 to 200 nM
CO[C@H]1CN(c2cc3c(c(F)c2C#N)C[C@@H](NC(=O)c2sc4nc(C)ccc4c2N)CO3)C[C@@H]1N [Example 200]	50 to 200 nM
CO[C@H]1CN(c2cc3c(cc2C#N)C[C@@H](NC(=O)c2sc4nc(C)ccc4c2N)CC3)C[C@@H]1N [Example 201, 3-amino-N-[(2S)-6-[(3S,4S)-3-amino-4-methoxypyrrolidin-1-yl]-7-cyano-1,2,3,4-tetrahydronaphthalen-2-yl]-6-methylthieno[2,3-b]pyridine-2-carboxamide]	200 to 2000 nM
Cc1ccc2c(N)c(C(=O)N[C@H]3COc4cc(N5C[C@H](OC(C)C)[C@@H](N)C5)ccc4C3)sc2n1 [Example 202, 3-amino-N-[(3R)-7-[(3S,4S)-3-amino-4-(propan-2-yloxy)pyrrolidin-1-yl]-3,4-dihydro-2H-1-benzopyran-3-yl]6-methylthieno[2,3-b]pyridine-2-carboxamide]	200 to 2000 nM
CO[C@H]1CN(c2ccc3c(n2)CC[C@H](NC(=O)c2sc4nc(C)c(F)cc4c2N)C3)C[C@@H]1N [Example 203, 3-amino-N-[(6S)-2-[(3S,4S)-3-amino-4-methoxypyrrolidin-1-yl]-5,6,7,8-tetrahydroquinolin-6-yl}-5-fluoro-6-methylthieno[2,3-b]pyridine-2-carboxamide]	> 2000 nM
Cc1nc2sc(C(=O)N[C@H]3CCc4nc(N5CCNCC5)ccc4C3)c(N)c2cc1F [Example 204, 3-amino-5-fluoro-6-methyl-N-[(6S)-2-(piperazin-1-yl)-5,6,7,8-tetrahydroquinolin-6-yl]thieno[2,3-b]pyridine-2-carboxamide]	200 to 2000 nM
Cc1ccc2c(N)c(C(=O)N[C@H]3Cc4ccc(N5CCNCC5)nc4[C@@H](C)C3)sc2n1 [Example 206, 3-amino-6-methyl-N-[(6R,8S)-8-methyl-2-(piperazin-1-yl)-5,6,7,8-tetrahydroquinolin-6-yl]thieno[2,3-b]pyridine-2-carboxamide]	> 2000 nM
Cc1ccc2c(N)c(C(=O)N[C@@H]3Cc4ccc(N5CCNCC5)nc4[C@H](C)C3)sc2n1 [Example 207, 3-amino-6-methyl-N-[(6S,8R)-8-methyl-2-(piperazin-1-yl)-5,6,7,8-tetrahydroquinolin-6-yl]thieno[2,3-b]pyridine-2-carboxamide]	> 2000 nM
Cc1ccc2c(N)c(C(=O)N[C@H]3Cc4ccc(N5CCNCC5)nc4[C@H](C)C3)sc2n1 [Example 208, 3-amino-6-methyl-N-[(6R,8R)-8-methyl-2-(piperazin-1-yl)-5,6,7,8-tetrahydroquinolin-6-yl]thieno[2,3-b]pyridine-2-carboxamide]	200 to 2000 nM
Cc1ccc2c(N)c(C(=O)N[C@H]3COc4cc(N5C6CNCC5COC6)ccc4C3)sc2n1 [Example 209, 3-amino-6-methyl-N-[(3R)-7-{3-oxa-7,9-diazabicyclo[3.3.1]nonan-9-yl}-3,4-dihydro-2H-1-benzopyran-3-yl]thieno[2,3-b]pyridine-2-carboxamide]	1 to 50 nM
CO[C@@]1(C)CN(c2ccc3c(n2)CC[C@H](NC(=O)c2sc4nc(C)ccc4c2N)C3)C[C@@H]1N [Example 210, 3-amino-N-[(6S)-2-[(3S,4S)-4-amino-3-methoxy-3-methylpyrrolidin-1-yl]-5,6,7,8-tetrahydroquinolin-6-yl]-6-methylthieno[2,3-b]pyridine-2-carboxamide]	> 2000 nM
CO[C@]1(C)CN(c2ccc3c(n2)CC[C@H](NC(=O)c2sc4nc(C)ccc4c2N)C3)C[C@H]1N [Example 211, 3-amino-N-[(6S)-2-[(3R,4R)-4-amino-3-methoxy-3-methylpyrrolidin-1-yl]-5,6,7,8-tetrahydroquinolin-6-yl]-6-methylthieno[2,3-b]pyridine-2-carboxamide]	> 2000 nM
CN[C@H]1CN(c2ccc3c(c2)OC[C@H](NC(=O)c2sc4nc(C)ccc4c2N)C3)C[C@@H]1OC [Example 212, 3-amino-N-[(3R)-7-[(3S,4S)-3-methoxy-4-(methylamino)pyrrolidin-1-yl]-3,4-dihydro-2H-1-benzopyran-3-yl]-6-methylthieno[2,3-b]pyridine-2-carboxamide]	200 to 2000 nM
CO[C@H]1CN(c2ccc3c(c2)OC[C@H](NC(=O)c2sc4nc(C)ccc4c2N)C3)C[C@@H]1NC(C)=O [Example 213, 3-amino-N-[(3R)-7-[(3S,4S)-3-acetamido-4-methoxypyrrolidin-1-yl]-3,4-dihydro-2H-1-benzopyran-3-yl]-6-methylthieno[2,3-b]pyridine-2-carboxamide]	200 to 2000 nM
Cc1ccc2c(N)c(C(=O)N[C@H]3COc4cc(N5C[C@H](N)C(C)(C)C5)ccc4C3)sc2n1 [Example 214, 3-amino-N-[(3R)-7-[(4R)-4-amino-3,3-dimethylpyrrolidin-1-yl]-3,4-dihydro-2H-1-benzopyran-3-yl]-6-methylthieno[2,3-b]pyridine-2-carboxamide]	50 to 200 nM
Cc1ccc2c(N)c(C(=O)N[C@H]3COc4cc(N5C[C@@H](N)C(C)(C)C5)ccc4C3)sc2n1 [Example 215, 3-amino-N-[(3R)-7-[(4S)-4-amino-3,3-dimethylpyrrolidin-1-yl]-3,4-dihydro-2H-1-benzopyran-3-yl]-6-methylthieno[2,3-b]pyridine-2-carboxamide]	50 to 200 nM
Cc1ccc2c(N)c(C(=O)N[C@H]3CCc4nc(N5CC[C@H]6CNC[C@H]65)ccc4C3)sc2n1 [Example 216, N-[(6S)-2-[(3aS,6aS)-octahydropyrrolo[2,3-c]pyrrol-1-yl}-5,6,7,8-tetrahydroquinolin-6-yl]-3-amino-6-methylthieno[2,3-b]pyridine-2-carboxamide]	200 to 2000 nM
Cc1ccc2c(N)c(C(=O)N[C@H]3CCc4nc(N5CC[C@@H]6CNC[C@@H]65)ccc4C3)sc2n1 [Example 217, N-[(6S)-2-[(3aR,6aR)-octahydropyrrolo[2,3-c]pyrrol-1-yl]-5,6,7,8-tetrahydroquinolin-6-yl]-3-amino-6-methylthieno[2,3-b]pyridine-2-carboxamide]	50 to 200 nM
Cc1cc(C)c2c(N)c(C(=O)N[C@H]3CCc4nc(N5CC[C@H]6CNC[C@H]65)ccc4C3)sc2n1 [Example 218, N-[(6S)-2-[(3aS 6aS)-octahydropyrrolo[2,3-c]pyrrol-1-yl]-5,6,7,8-tetrahydroquinolin-6-yl]-3-amino-4,6-dimethylthieno[2,3-b]pyridine-2-carboxamide]	200 to 2000 nM
Cc1cc(C)c2c(N)c(C(=O)N[C@H]3CCc4nc(N5CC[C@@H]6CNC[C@@H]65)ccc4C3)sc2n1 [Example 219, N-[(6S)-2-[(3aR,6aR)-octahydropyrrolo[2,3-c]pyrrol-1-yl]-5,6,7,8-tetrahydroquinolin-6-yl]-3-amino-4,6-dimethylthieno[2,3-b]pyridine-2-carboxamide]	50 to 200 nM
